Source: patent US7160729B2, “Method for detecting diseases that are associated with defects of cystic fibrosis transmembrane conductance regulator (CFTR) protein” (priority 2002, dated 2007)
Entries after “also recorded” stand apart in the source; their conditions may differ.

How the values were obtained:
[1] = test system: blood cells; CFTR dependent ion channels (SDAC); assay: Hemolysis test of blood cells in 155 mM KCl medium with sDIDS activation of CFTR dependent ion channels; format: cell-based, human
Text: This embodiment of the invention is based on the idea of evoking a lysis of the non-defective blood cells through activation of certain ion channels of the non-defective blood cells, where through anions flow into the non defective cell, for example: Iodide (I—), bromide (Br—), chloride (Cl—), fluoride (F—), gluconate (dextronic acid-anion), rhodanate (SCN—), and taurine. In defective blood cells these CFTR dependent ion channels don't exist or are not activatable. […] Then no positive pressure can build up in the cell; the blood cells with defective CFTR, especially the blood cells of CF Patients are not subject to lysis.
Since this CFTR dependent ion channel in non-defective blood cells allows the passage of anions such as for example: iodide, bromide, chloride, fluoride, gluconate and rhodanate as well as taurine, the differentiation between defective and non-defective blood cells can also take place in 155 mm solutions that contain iodide, bromide, fluoride, gluconate, rhodanate or taurine.
This embodiment is carried out analogously to the example mentioned above, only the blood cells are resuspended in a solution consisting of 155 mM KCl, 10 mM HEPES-Puffer (pH 7.4) and 100 μM sDIDS. This solution is incubated for 60 min under agitation at 37° C. and afterwards the released hemoglobin in the solution is determined.
Through the selected conditions of the preferred embodiment of the method according to the invention, chloride ions flow into non-defective blood cells via the anion channel activated by sDIDS into the blood cell. That leads to the accumulation of chloride ions in the blood cell and the water influx associated ion influx leads the good blood cell to burst. The hemolysis can be detected photometrically. This procedure may also be carried out with 10 mM HEPES-buffered solution (pH 7,4), that contains 155 mM iodide, bromide, fluoride, gluconate, or rhodanate as anions.

[2] = aqueous solution, room temperature; cited from earlier work
[3] = test system: blood cells (reticulocytes and young erythrocytes); CFTR dependent ATP release; assay: Hemolysis test of blood cells in 155 mM KCl medium with Gd3+ blockade of CFTR dependent volume regulation; format: cell-based, human
Text: A non-defective cell is able to control and regulate its cell volume by interlinking mechanisms during the influx and the efflux of ions and water under physiological conditions. In non-defective blood cells, after application of a 155 mm potassium chloride medium chloride flows into the cell, inter alia through the CFTR. In one embodiment, the invention is based on the idea to inhibit the regulatory volume decrease (RVD) by influencing—for example by blockade—the CFTR-dependent ATP-transporting channels expressed in the cytomembrane. […] This is especially the case with CF blood cells, which due to the CFTR defect have no influx of chloride ions and whose RVD is independent of CFTR. Therefore, no positive pressure can build up in the cell; the blood cells with defective ion channels, especially the blood cells of CF patients undergo no lysis.
In patients suffering from mucoviscidosis with a homozygous ΔF508 mutation, the CFTR is not in the cytomembrane. With heterozygous mutations and other mutations than ΔF508, small quantities of functional CFTR can be in the membrane that transport chloride and are involved in volume regulation. The quantity of the functional CFTR molecules in the cytomembrane is inversely proportional to the severity of the illness. […] The contribution of the CFTR dependent RVD to the entire RVD is proportional to the quantity of the functional CFTR molecules within the membrane. […] Because the quantity of the functional CFTR molecules in the cytomembrane is inversely proportional to the severity of the illness in mucoviscodosis patients, the degree of the hemolysis after blockade of the CFTR dependent RVD is a measurement for the severity of the illness.
In accordance with the invention, first blood cells are extracted from whole blood by centrifugation. […] This solution is incubated for 60 min under agitation at 37° C. and afterwards the released hemoglobin in the solution is determined. […] The hemolysis is determined by visual examination and is quantified by absorption measurement with a wave length of 546 nm. […]

[4] = test system: Calu-3 cells (human respiratory tract epithelium cell line); assay: Patch-clamp, whole-cell configuration; format: cell-based; settings: Calu-3, whole-cell, -90 to +10 mV
Experimental: During the experimental development of the test, it is shown that the observed reaction of the red blood cells can not be explained by the mechanisms known in the literature. The blood cell reactions are only explainable by the existence of a channel proteins, which is not yet known in literature.
In the whole-cell-configuration of the patch-clamp technology, the transmembrane current of a cell is measured with a pre-determined potential. The endocellular potential was maintained for 0.5 seconds in each case at values between −90 to +10 mV and increased in 10 mV intervals (8.d). The currents arising in a cell with this voltage range are presented in 8a–8c. In 8a, the base current of an untreated cell is shown (control). Through treatment with sDIDS, the conductivity of the cytomembrane of this cell increases together with the current (8b). After sDIDS was removed from the experiment (post control), the conductivity of the cytomembrane of this cell decreases, together with the current (8c). In 8e, the current is plotted against the applied potential, so that the slope of the curve is a measurement of the conductivity.

Nc1ccc(CCc2ccc(N=C=S)cc2S(=O)(=O)O)c(S(=O)(=O)[O-])c1.[Na+] [4-amino-4′isothiocyanato-dihydrostilbene-2,2′-disulfonic acid, Na^+-salt]
behaviour compared with sDIDS [1]: behaves like sDIDS

O=S(=O)([O-])c1cc(N=C=S)ccc1C=Cc1ccc(N=C=S)cc1S(=O)(=O)[O-].[Na+].[Na+] [DIDS, 4,4′-diisothiocyanato-stilbene-2,2′-disulfonic acid, sodium salt]
time of hydrolysis to 4-amino-4′-isothiocyanatostilbene-2,2′-disulfonic acid [2]: within a week

[Cl][Gd]([Cl])[Cl] [Gd^3+, gadolinium chloride]
degree of hemolysis after Gd^3+ application ([3]; blood of 22 CF patients): only a slight increase
degree of hemolysis after addition of Gd^3+ ([3]; blood of 87 healthy volunteers): unambiguous increase
degree of hemolysis after addition of Gd^3+ ([3]; umbilical cord blood of 59 newborns): unambiguous increase

CC(=O)Nc1ccc(C=Cc2ccc(N=C=S)cc2S(=O)(=O)O)c(S(=O)(=O)O)c1 [SITS, 4-acetamido-4′-isothiocyanato-stilbene-2,2′-disulfonic acid]
time of hydrolysis to 4-amino-4′-isothiocyanatostilbene-2,2′-disulfonic acid [2]: within a week

Nc1ccc(C=Cc2ccc(N=C=S)cc2S(=O)(=O)O)c(S(=O)(=O)O)c1 [sDIDS, 4-amino-4′-isothiocyanato-stilbene-2,2′-disulfonic acid]
activation of anion conductivity (iodide, bromide, chloride, fluoride, gluconate, rhodanate, taurine) ([1]; blood cells of CF patients): no conductivity
degree of hemolysis after sDIDS application ([1]; blood of 48 CF patients): only a slight increase
degree of hemolysis after addition of sDIDS ([1]; blood of 148 healthy volunteers): unambiguous increase
degree of hemolysis after addition of sDIDS ([1]; umbilical cord blood of 82 newborns): unambiguous increase
conductivity of the cytomembrane / current after removal (post control) [4]: decreases
conductivity of the cytomembrane / current during treatment [4]: reversible activatibility of a conductivity; also recorded: increases
